# Source: patent US11957680B2, “Pyruvate kinase activators for use in treating blood disorders” (Agios Pharmaceuticals, Inc., priority 2017, dated 2024)
# Legend:
# wild type PKR [1] = molecular target: T1, wild type PKR (Homo sapiens, UniProt P30613); assay: PKR (wild type) enzyme AC50 assay, LDH/NADH-coupled, absorbance at 340 nm; assay type: biochemical; conditions: for AC50: Table 2, enzyme assay, read-out: PKR WT AC50; for EC50: Table 4, AC50, enzyme assay, read-out: PKR WT
# Method in brief: (§1)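 LDH/NADH coupling; 40-400 ng/well enzyme; PEP 0.1-0.5 mM, ADP 0.2-1.65 mM, NADH 180 μM, LDH 0.5 units; Tris pH 7.5/KCl/MgCl2 buffer with DTT, BSA. 60 min RT compound preincubation, ADP start, A340 at RT. 11-point 3-fold series from 100 μM.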
# PKR K410E = PKR K410E (Homo sapiens, UniProt P30613, K410E); assay: PKR mutant assay (K410E), AC50, LDH/NADH-coupled, absorbance at 340 nm; assay type: biochemical; conditions: for AC50: Table 2, enzyme assay; for EC50: Table 4, AC50, enzyme assay
# Method in brief: as §1
# PKR R510Q = PKR R510Q (Homo sapiens, UniProt P30613, R510Q); assay: PKR mutant assay (R510Q), AC50, LDH/NADH-coupled, absorbance at 340 nm; assay type: biochemical; conditions: for AC50: Table 2, enzyme assay, read-out: PK R510Q AC50; for EC50: Table 4, AC50, enzyme assay, read-out: PK R510Q
# Method in brief: as §1
# wild type PKR [2] = molecular target: T1, wild type PKR; assay: Cell based ATP assay in purified red blood cells (Cell-Titer-Glo); design: endogenous in cells; host or cells: purified red blood cells from healthy volunteers; conditions: overnight at 37° C., ATP levels; for AC50 / Cell based ATP assay AC50: Table 2, RBCs; for EC50: Table 4, AC50, RBCs
# Method in brief: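 ATP levels were quantified by Cell-Titer-Glo after overnight 37 °C exposure of cells to compound (1:4 dilution series, 0.1% DMSO final). The cells were human erythrocytes, filter-purified to remove leukocytes and plated at 1×10^7 cells/mL in AGAM medium.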
# Chain of PKR R510Q (P30613 whole entry R510Q): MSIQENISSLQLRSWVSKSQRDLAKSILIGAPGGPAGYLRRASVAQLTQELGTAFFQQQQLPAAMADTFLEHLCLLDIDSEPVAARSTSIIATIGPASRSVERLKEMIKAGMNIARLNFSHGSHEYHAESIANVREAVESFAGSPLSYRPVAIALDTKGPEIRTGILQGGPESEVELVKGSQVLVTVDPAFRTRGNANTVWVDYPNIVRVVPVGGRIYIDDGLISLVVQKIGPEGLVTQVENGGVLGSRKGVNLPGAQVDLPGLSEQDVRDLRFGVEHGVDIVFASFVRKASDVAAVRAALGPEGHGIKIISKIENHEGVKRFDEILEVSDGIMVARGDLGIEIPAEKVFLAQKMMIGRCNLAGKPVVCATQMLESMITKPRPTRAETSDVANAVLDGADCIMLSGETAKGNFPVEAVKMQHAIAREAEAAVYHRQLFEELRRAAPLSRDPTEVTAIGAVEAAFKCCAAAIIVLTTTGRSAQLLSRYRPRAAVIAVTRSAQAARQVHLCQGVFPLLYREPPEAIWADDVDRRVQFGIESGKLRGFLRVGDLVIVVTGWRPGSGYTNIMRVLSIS
# T1 sequence (P30613 whole entry): as the sequence (P30613 whole entry R510Q) above, with Q510R counted along it
# Chain of PKR K410E (P30613 whole entry K410E): as the sequence (P30613 whole entry R510Q) above, with K410E, Q510R counted along it
SMILES,AC50 (wild type PKR [1]) [nM],AC50 (PKR K410E) [nM],AC50 (PKR R510Q) [nM],AC50 (wild type PKR [2]) [nM],EC50 (wild type PKR [1]) [nM],EC50 (PKR K410E) [nM],EC50 (PKR R510Q) [nM],EC50 (wild type PKR [2]) [nM],Cell based ATP assay AC50 (wild type PKR [2])
CNc1ccc(Cn2ncc3c4sc(C)nc4n(C)c3c2=O)cc1 [Compound 69],> 800,> 800,301 to 800,> 1000,,,,,
Cc1nc2c(s1)c1cnn(Cc3ccccc3O)c(=O)c1n2C [Compound 18],301 to 800,301 to 800,< 300,≤ 1000,,,,,
Cc1nc2c(s1)c1cnn(Cc3cccc(N)n3)c(=O)c1n2C [Compound 74],< 300,< 300,< 300,≤ 1000,,,,,
COc1cccc(Cn2ncc3c4sc(Cc5ccc(Cl)cc5)nc4n(C)c3c2=O)c1 [Compound 31],< 300,301 to 800,< 300,≤ 1000,,,,,
CSc1nc2c(s1)c1cnn(Cc3csc(-n4c(C)ccc4C)n3)c(=O)c1n2C [Compound 129],> 800,> 800,> 800,> 1000,,,,,
Cn1c2nc(Cc3cccc(=O)[nH]3)sc2c2cnn(Cc3cccc4[nH]ncc34)c(=O)c21 [Compound 170],< 300,< 300,< 300,≤ 1000,,,,,
COc1cccc(Cn2ncc3c4sc(Cc5ccc(F)cc5)nc4n(C)c3c2=O)c1 [Compound 59],< 300,< 300,< 300,≤ 1000,,,,,
Cn1c2nc(Cc3cc(Cl)[nH]n3)sc2c2cnn(Cc3cccc4[nH]ncc34)c(=O)c21 [Compound 233],,,,,< 300,< 300,< 300,≤ 1000,
Cn1c2nc(Cc3cccc(O)c3)sc2c2cnn(Cc3cccc4[nH]ncc34)c(=O)c21 [Compound 89],< 300,< 300,< 300,≤ 1000,,,,,
Cn1c2nc(Cc3ccccn3)sc2c2cnn(Cc3cccc4[nH]ncc34)c(=O)c21 [Compound 151],< 300,< 300,< 300,≤ 1000,,,,,
Cn1c2nc(Cc3cc[nH]n3)sc2c2cnn(Cc3ccc4[nH]ncc4n3)c(=O)c21 [Compound 280],,,,,< 300,< 300,< 300,≤ 1000,
Cc1nc2c(s1)c1cnn(Cc3ccccc3F)c(=O)c1n2C [Compound 3],< 300,< 300,< 300,≤ 1000,,,,,
Cn1c2nc(S(N)(=O)=O)sc2c2cnn(Cc3cccc4[nH]ncc34)c(=O)c21 [Compound 141],< 300,< 300,< 300,≤ 1000,,,,,
CSc1nc2c(s1)c1cnn(Cc3ccc(S(N)(=O)=O)cc3)c(=O)c1n2C [Compound 116],> 800,> 800,> 800,,,,,,No Fit
Cn1c2nc(C#N)sc2c2cnn(Cc3cccc4[nH]ncc34)c(=O)c21 [Compound 84],< 300,301 to 800,301 to 800,> 1000,,,,,
COc1cccc(Cn2ncc3c4sc(Cc5ccc(C(F)(F)F)cc5)nc4n(C)c3c2=O)c1 [Compound 41],< 300,< 300,< 300,≤ 1000,,,,,
COc1ccccc1Cn1ncc2c3sc(C)nc3n(C)c2c1=O [Compound 8],> 800,301 to 800,301 to 800,> 1000,,,,,
COc1ncccc1Cc1nc2c(s1)c1cnn(Cc3cccc4[nH]ncc34)c(=O)c1n2C [Compound 219],,,,,< 300,< 300,< 300,≤ 1000,
Cn1c2nc(Cc3cc[nH]n3)sc2c2cnn(Cc3n[nH]c4ccccc34)c(=O)c21 [Compound 372],,,,,< 300,< 300,< 300,≤ 1000,
Cn1c2nc(Cc3cc[nH]n3)sc2c2cnn(Cc3cccc4[nH]ccc34)c(=O)c21 [Compound 246],,,,,< 300,< 300,< 300,≤ 1000,

SMILES,AC50 (wild type PKR [1]) [nM],AC50 (PKR K410E) [nM],AC50 (PKR R510Q) [nM],AC50 (wild type PKR [2]) [nM],EC50 (wild type PKR [1]) [nM],EC50 (PKR K410E) [nM],EC50 (PKR R510Q) [nM],EC50 (wild type PKR [2]) [nM],Cell based ATP assay AC50 (wild type PKR [2])
Cn1c2nc(Cc3cc[nH]n3)sc2c2cnn(Cc3ccc4c(F)c[nH]c4n3)c(=O)c21 [Compound 383],,,,,< 300,< 300,< 300,≤ 1000,
Cn1c2nc(Cc3ccncc3)sc2c2cnn(Cc3cccc4[nH]ncc34)c(=O)c21 [Compound 161],> 800,> 800,> 800,> 1000,,,,,
COC(=O)C(C(=O)OC)c1nc2c(s1)c1cnn(Cc3cccc4[nH]ncc34)c(=O)c1n2C [Compound 113],> 800,> 800,> 800,> 1000,,,,,
Cn1c2nc(Cc3cc[nH]n3)sc2c2cnn(Cc3ccccc3)c(=O)c21 [Compound 193],,,,,< 300,< 300,< 300,≤ 1000,
Cc1nc2c(s1)c1cnn(CCCO)c(=O)c1n2C [Compound 46],> 800,> 800,> 800,> 1000,,,,,
Cn1c2nc(C(C(N)=O)c3cc[nH]n3)sc2c2cnn(Cc3cccc4[nH]ncc34)c(=O)c21 (stereo not shown) [Compound 212],,,,,< 300,< 300,< 300,≤ 1000,
CNc1cccc(Cn2ncc3c4sc(C)nc4n(C)c3c2=O)c1 [Compound 70],< 300,< 300,< 300,≤ 1000,,,,,
Cn1c2nc(C(O)(C(N)=O)c3ccccc3)sc2c2cnn(Cc3cccc4[nH]ncc34)c(=O)c21 (stereo not shown) [Compound 152],301 to 800,< 300,301 to 800,≤ 1000,,,,,
Cn1c2nc(Cc3cc[nH]n3)sc2c2cnn(Cc3ccc(C#N)cc3)c(=O)c21 [Compound 175],< 300,< 300,< 300,≤ 1000,,,,,
CSc1nc2c(s1)c1cnn(Cc3cccc4sc(N)nc34)c(=O)c1n2C [Compound 114],< 300,< 300,< 300,,,,,,No Fit
Cn1c2nc(NCc3ccccc3)sc2c2cnn(Cc3cccc4[nH]ncc34)c(=O)c21 [Compound 149],301 to 800,301 to 800,301 to 800,> 1000,,,,,
Cn1c2nc(Cn3cccn3)sc2c2cnn(Cc3cccc4[nH]ncc34)c(=O)c21 [Compound 292],,,,,< 300,< 300,< 300,≤ 1000,
Cn1c2nc([S+](C)[O-])sc2c2cnn(Cc3csc(N)n3)c(=O)c21 (stereo not shown) [Compound 83],< 300,< 300,< 300,≤ 1000,,,,,
Cn1c2nc(Cc3cc[nH]n3)sc2c2cnn(Cc3ccc4c(n3)NCC4)c(=O)c21 [Compound 384],,,,,< 300,< 300,< 300,≤ 1000,
COc1cccc(Cn2ncc3c4sc(C(O)c5ccccc5)nc4n(C)c3c2=O)c1 (stereo not shown) [Compound 13],< 300,< 300,< 300,≤ 1000,,,,,
COc1cccc(Cn2ncc3c4sc(SC)nc4n(C)c3c2=O)c1 [Compound 23],< 300,< 300,< 300,> 1000,,,,,
Cn1c2nc(Cc3cnoc3)sc2c2cnn(Cc3cccc4[nH]ncc34)c(=O)c21 [Compound 185],> 800,301 to 800,301 to 800,> 1000,,,,,
CCc1nc2c(s1)c1cnn(Cc3cccc(OC)c3)c(=O)c1n2C [Compound 39],< 300,< 300,< 300,> 1000,,,,,
Cn1c2nc(Cc3cc[nH]n3)sc2c2cnn(Cc3ccc4cc(F)[nH]c4n3)c(=O)c21 [Compound 391],,,,,< 300,< 300,< 300,≤ 1000,
Cn1c2nc([S+](C)[O-])sc2c2cnn(Cc3ccnc(N)n3)c(=O)c21 (stereo not shown) [Compound 97],> 800,> 800,> 800,> 1000,,,,,
